# EP3002287B1, “Thiochromeno[2,3-c]quinolin-12-one derivatives and their use as topoisomerase inhibitors” (National Defense Medical Center, priority 2014, dated 2016)
# Experiments:
# UACC-62 = experiment: NCI in vitro 60-cell drug screen (SRB assay); assay type: cell-based; conditions: UACC-62 (Melanoma); 10^-5 molar concentration; 48 hours
# MDA-MB-486 = experiment: NCI in vitro 60-cell drug screen (SRB assay); assay type: cell-based; conditions: MDA-MB-486 (Breast cancer); 10^-5 molar concentration; 48 hours
# SR = experiment: NCI in vitro 60-cell drug screen (SRB assay); assay type: cell-based; conditions: SR (Leukemia); 10^-5 molar concentration; 48 hours
# NCI-H522 = experiment: NCI in vitro 60-cell drug screen (SRB assay); assay type: cell-based; conditions: NCI-H522 (Non-small cell lung cancer); 10^-5 molar concentration; 48 hours
# UACC-257 = experiment: NCI in vitro 60-cell drug screen (SRB assay); assay type: cell-based; conditions: UACC-257 (Melanoma); 10^-5 molar concentration; 48 hours
# HCT-116 = experiment: NCI in vitro 60-cell drug screen (SRB assay); assay type: cell-based; conditions: HCT-116 (Colon cancer); 10^-5 molar concentration; 48 hours
# MDA-MB-231/ATCC = experiment: NCI in vitro 60-cell drug screen (SRB assay); assay type: cell-based; conditions: MDA-MB-231/ATCC (Breast cancer); 10^-5 molar concentration; 48 hours
# EKVX = experiment: NCI in vitro 60-cell drug screen (SRB assay); assay type: cell-based; conditions: EKVX (Non-small cell lung cancer); 10^-5 molar concentration; 48 hours
# MOLT-4 = experiment: NCI in vitro 60-cell drug screen (SRB assay); assay type: cell-based; conditions: MOLT-4 (Leukemia); 10^-5 molar concentration; 48 hours
# NCI-H322M = experiment: NCI in vitro 60-cell drug screen (SRB assay); assay type: cell-based; conditions: NCI-H322M (Non-small cell lung cancer); 10^-5 molar concentration; 48 hours
# SN12C = experiment: NCI in vitro 60-cell drug screen (SRB assay); assay type: cell-based; conditions: SN12C (Renal cancer); 10^-5 molar concentration; 48 hours
# 60 cell lines = experiment: NCI in vitro 60-cell drug screen (SRB assay), whole panel statistics; conditions: mean over the cell panel; 10^-5 molar concentration; 48 hours
# U251 = experiment: NCI in vitro 60-cell drug screen (SRB assay); assay type: cell-based; conditions: U251 (CNS cancer); 10^-5 molar concentration; 48 hours
# HS 578T = experiment: NCI in vitro 60-cell drug screen (SRB assay); assay type: cell-based; conditions: HS 578T (Breast cancer); 10^-5 molar concentration; 48 hours
# A549/ATCC = experiment: NCI in vitro 60-cell drug screen (SRB assay); assay type: cell-based; conditions: A549/ATCC (Non-small cell lung cancer); 10^-5 molar concentration; 48 hours
# HOP-62 = experiment: NCI in vitro 60-cell drug screen (SRB assay); assay type: cell-based; conditions: HOP-62 (Non-small cell lung cancer); 10^-5 molar concentration; 48 hours
# SF-539 = experiment: NCI in vitro 60-cell drug screen (SRB assay); assay type: cell-based; conditions: SF-539 (CNS cancer); 10^-5 molar concentration; 48 hours
# CCRF-CEM = experiment: NCI in vitro 60-cell drug screen (SRB assay); assay type: cell-based; conditions: CCRF-CEM (Leukemia); 10^-5 molar concentration; 48 hours
# LOX IMVI = experiment: NCI in vitro 60-cell drug screen (SRB assay); assay type: cell-based; conditions: LOX IMVI (Melanoma); 10^-5 molar concentration; 48 hours
# OVCAR-5 = experiment: NCI in vitro 60-cell drug screen (SRB assay); assay type: cell-based; conditions: OVCAR-5 (Ovarian cancer); 10^-5 molar concentration; 48 hours
# SNB-19 = experiment: NCI in vitro 60-cell drug screen (SRB assay); assay type: cell-based; conditions: SNB-19 (CNS cancer); 10^-5 molar concentration; 48 hours
# RXF 393 = experiment: NCI in vitro 60-cell drug screen (SRB assay); assay type: cell-based; conditions: RXF 393 (Renal cancer); 10^-5 molar concentration; 48 hours
# HCT-15 = experiment: NCI in vitro 60-cell drug screen (SRB assay); assay type: cell-based; conditions: HCT-15 (Colon cancer); 10^-5 molar concentration; 48 hours
# OVCAR-4 = experiment: NCI in vitro 60-cell drug screen (SRB assay); assay type: cell-based; conditions: OVCAR-4 (Ovarian cancer); 10^-5 molar concentration; 48 hours
# SK-MEL-2 = experiment: NCI in vitro 60-cell drug screen (SRB assay); assay type: cell-based; conditions: SK-MEL-2 (Melanoma); 10^-5 molar concentration; 48 hours
# SNB-75 = experiment: NCI in vitro 60-cell drug screen (SRB assay); assay type: cell-based; conditions: SNB-75 (CNS cancer); 10^-5 molar concentration; 48 hours
# 786-0 = experiment: NCI in vitro 60-cell drug screen (SRB assay); assay type: cell-based; conditions: 786-0 (Renal cancer); 10^-5 molar concentration; 48 hours
# MCF7 = experiment: NCI in vitro 60-cell drug screen (SRB assay); assay type: cell-based; conditions: MCF7 (Breast cancer); 10^-5 molar concentration; 48 hours
# ACHN = experiment: NCI in vitro 60-cell drug screen (SRB assay); assay type: cell-based; conditions: ACHN (Renal cancer); 10^-5 molar concentration; 48 hours
# M14 = experiment: NCI in vitro 60-cell drug screen (SRB assay); assay type: cell-based; conditions: M14 (Melanoma); 10^-5 molar concentration; 48 hours
# K-562 = experiment: NCI in vitro 60-cell drug screen (SRB assay); assay type: cell-based; conditions: K-562 (Leukemia); 10^-5 molar concentration; 48 hours
# MALME-3M = experiment: NCI in vitro 60-cell drug screen (SRB assay); assay type: cell-based; conditions: MALME-3M (Melanoma); 10^-5 molar concentration; 48 hours
# OVCAR-8 = experiment: NCI in vitro 60-cell drug screen (SRB assay); assay type: cell-based; conditions: OVCAR-8 (Ovarian cancer); 10^-5 molar concentration; 48 hours
# NCI-H460 = experiment: NCI in vitro 60-cell drug screen (SRB assay); assay type: cell-based; conditions: NCI-H460 (Non-small cell lung cancer); 10^-5 molar concentration; 48 hours
smiles,measurement,setting,value
"O=C(O)c1c(Sc2ccc(Cl)cc2)c(O)nc2ccccc12 [Compound 2, 3-((4-Chlorophenyl)thio)-2-hydroxyquinoline-4-carboxylic acid]",Growth percent,UACC-62,102.05%
same,Growth percent,MDA-MB-486,104.57%
same,Growth percent,SR,106.33%
same,Growth percent,NCI-H522,81.64%
same,Growth percent,UACC-257,121.83%
same,Growth percent,HCT-116,103.87%
same,Growth percent,MDA-MB-231/ATCC,95.70%
same,Growth percent,EKVX,89.47%
same,Growth percent,MOLT-4,97.25%
same,Growth percent,NCI-H322M,101.10%
same,Growth percent,SN12C,95.83%
same,"Growth percent, Mean",60 cell lines,102.11%
same,Growth percent,U251,99.59%
same,Growth percent,HS 578T,88.33%
same,Growth percent,A549/ATCC,107.34%
same,Growth percent,HOP-62,116.47%
same,Growth percent,SF-539,110.22%
same,Growth percent,CCRF-CEM,98.31%
same,Growth percent,LOX IMVI,90.46%
same,Growth percent,OVCAR-5,112.47%
same,Growth percent,SNB-19,97.17%
same,Growth percent,RXF 393,113.90%
same,Growth percent,HCT-15,107.80%
same,Growth percent,OVCAR-4,98.41%
same,Growth percent,SK-MEL-2,119.91%
same,Growth percent,SNB-75,82.18%
same,Growth percent,786-0,104.44%
same,Growth percent,MCF7,91.95%
same,Growth percent,ACHN,113.47%
same,Growth percent,M14,106.90%
same,Growth percent,K-562,112.29%
same,Growth percent,MALME-3M,107.05%
same,Growth percent,OVCAR-8,114.68%
same,Growth percent,NCI-H460,104.20%
